Data on three compounds can be found in ChEMBL document CHEMBL3044572, “Discovery of 2-(4-cyano-3-trifluoromethylphenyl amino)-4-(4-quinazolinyloxy)-6-piperazinyl(piperidinyl)-s-triazines as potential antibacterial agents” (2012).

For assay [1], the system named is Bacillus cereus. Kind of assay: Antimicrobial activity against Bacillus cereus MTCC 619 at 100 ug/ml by paper disk diffusion method. The format is functional, organism-based.
The subject of assay [2] is Mycobacterium tuberculosis. As to the kind of experiment: Antimicrobial activity against Mycobacterium tuberculosis H37Rv at 100 ug/ml by BACTEC MGIT method. The assay is classed as functional, organism-based.
The test system of assay [3] is Mycobacterium tuberculosis. Kind of assay: Antimicrobial activity against Mycobacterium tuberculosis H37Rv by BACTEC MGIT method. The format is functional. Conditions: Mycobacterium tuberculosis, H37Rv.
Assay [4] concerns Mycobacterium tuberculosis. Kind of assay: Antimicrobial activity against Mycobacterium tuberculosis H37Rv by Lowenstein and Jensen method. The assay is classed as functional. Conditions: for MIC: Mycobacterium tuberculosis, H37Rv.
Assay [5] deals with Candida albicans. Kind of assay: Antimicrobial activity against Candida albicans MTCC 183 at 100 ug/ml by paper-disk diffusion method. The format is functional, organism-based.
Assay [6] relates to Pseudomonas aeruginosa. As to the kind of experiment: Antimicrobial activity against Pseudomonas aeruginosa MTCC 741 at 100 ug/ml by paper disk diffusion method. The format is functional, organism-based.
Assay [7] deals with Shigella flexneri. As to the kind of experiment: Antimicrobial activity against Shigella flexneri MTCC 1457 by paper disk diffusion method. The format is functional.
Assay [8] deals with Shigella flexneri. As to the kind of experiment: Antimicrobial activity against Shigella flexneri MTCC 1457 by agar streak dilution method. The assay is classed as functional.
The subject of assay [9] is Aspergillus clavatus. As to the kind of experiment: Antimicrobial activity against Aspergillus clavatus MTCC 1323 at 100 ug/ml by paper disk diffusion method. The assay is classed as functional, organism-based.
Assay [10] has as its system Proteus vulgaris. Kind of assay: Antimicrobial activity against Proteus vulgaris MTCC 1771 at 100 ug/ml by paper disk diffusion method. The format is functional, organism-based.
Assay [11] concerns Klebsiella pneumoniae. As to the kind of experiment: Antimicrobial activity against Klebsiella pneumoniae MTCC 109 at 100 ug/ml by paper disk diffusion method. The format is functional, organism-based.
Assay [12] has as its system Staphylococcus aureus. Kind of assay: Antimicrobial activity against Staphylococcus aureus MTCC 96 at 100 ug/ml by paper-disk diffusion method. The assay is classed as functional, organism-based.
For assay [13], the system named is Salmonella typhi. As to the kind of experiment: Antimicrobial activity against Salmonella enterica subsp. enterica serovar Typhi MTCC 733 at 100 ug/ml by paper disk diffusion method. The format is functional, organism-based.
The test system of assay [14] is Escherichia coli. As to the kind of experiment: Antimicrobial activity against Escherichia coli MTCC 739 at 100 ug/ml by paper-disk diffusion method. The format is functional, organism-based.
For assay [15], the system named is Aspergillus niger. As to the kind of experiment: Antimicrobial activity against Aspergillus niger MTCC 282 at 100 ug/ml by paper-disk diffusion method. The format is functional, organism-based.
In assay [16] the test system is Aspergillus fumigatus. As to the kind of experiment: Antimicrobial activity against Aspergillus fumigatus MTCC 343 at 100 ug/ml by paper-disk diffusion method. The assay is classed as functional, organism-based.
Assay [17] concerns Klebsiella pneumoniae. As to the kind of experiment: Antimicrobial activity against Klebsiella pneumoniae MTCC 109 by paper disk diffusion method. The format is functional.
Assay [18] has as its system Shigella flexneri. As to the kind of experiment: Antimicrobial activity against Shigella flexneri MTCC 1457 at 100 ug/ml by paper-disk diffusion method. The format is functional, organism-based.
The subject of assay [19] is Staphylococcus aureus. Kind of assay: Antimicrobial activity against Staphylococcus aureus MTCC 96 by agar streak dilution method. The assay is classed as functional.
The test system of assay [20] is Klebsiella pneumoniae. As to the kind of experiment: Antimicrobial activity against Klebsiella pneumoniae MTCC 109 by agar streak dilution method. The assay is classed as functional.
For assay [21], the system named is Staphylococcus aureus. Kind of assay: Antimicrobial activity against Staphylococcus aureus MTCC 96 by paper-disk diffusion method. The assay is classed as functional.
Assay [22] relates to Escherichia coli. As to the kind of experiment: Antimicrobial activity against Escherichia coli MTCC 739 by agar streak dilution method. The format is functional.
In assay [23] the test system is Salmonella typhi. Kind of assay: Antimicrobial activity against Salmonella enterica subsp. enterica serovar Typhi MTCC 733 by agar streak dilution method. The assay is classed as functional.
The subject of assay [24] is Candida albicans. As to the kind of experiment: Antimicrobial activity against Candida albicans MTCC 183 by agar streak dilution method. The format is functional.
The test system of assay [25] is Salmonella typhi. As to the kind of experiment: Antimicrobial activity against Salmonella enterica subsp. enterica serovar Typhi MTCC 733 by paper disk diffusion method. The assay is classed as functional.
Assay [26] concerns Escherichia coli. As to the kind of experiment: Antimicrobial activity against Escherichia coli MTCC 739 by paper disk diffusion method. The assay is classed as functional.
Assay [27] relates to Candida albicans. Kind of assay: Antimicrobial activity against Candida albicans MTCC 183 by paper-disk diffusion method. The format is functional.
The test system of assay [28] is Aspergillus niger. As to the kind of experiment: Antimicrobial activity against Aspergillus niger MTCC 282 by agar streak dilution method. The assay is classed as functional.
For assay [29], the system named is Proteus vulgaris. As to the kind of experiment: Antimicrobial activity against Proteus vulgaris MTCC 1771 by paper disk diffusion method. The assay is classed as functional.
Assay [30] relates to Pseudomonas aeruginosa. As to the kind of experiment: Antimicrobial activity against Pseudomonas aeruginosa MTCC 741 by agar streak dilution method. The format is functional.
Assay [31] relates to Bacillus cereus. Kind of assay: Antimicrobial activity against Bacillus cereus MTCC 619 by paper disk diffusion method. The assay is classed as functional.
In assay [32] the test system is Pseudomonas aeruginosa. Kind of assay: Antimicrobial activity against Pseudomonas aeruginosa MTCC 741 by paper disk diffusion method. The assay is classed as functional.
For assay [33], the system named is Aspergillus niger. Kind of assay: Antimicrobial activity against Aspergillus niger MTCC 282 by paper-disk diffusion method. The format is functional.
Assay [34] has as its system Aspergillus clavatus. Kind of assay: Antimicrobial activity against Aspergillus clavatus MTCC 1323 by paper disk diffusion method. The format is functional.
Assay [35] has as its system Aspergillus clavatus. As to the kind of experiment: Antimicrobial activity against Aspergillus clavatus MTCC 1323 by agar streak dilution method. The format is functional.
Assay [36] relates to Proteus vulgaris. Kind of assay: Antimicrobial activity against Proteus vulgaris MTCC 1771 by agar streak dilution method. The format is functional.
The subject of assay [37] is Aspergillus fumigatus. Kind of assay: Antimicrobial activity against Aspergillus fumigatus MTCC 343 by paper-disk diffusion method. The format is functional.
In assay [38] the test system is Bacillus cereus. As to the kind of experiment: Antimicrobial activity against Bacillus cereus MTCC 619 by agar streak dilution method. The format is functional.
For assay [39], the system named is Aspergillus fumigatus. As to the kind of experiment: Antimicrobial activity against Aspergillus fumigatus MTCC 343 by agar streak dilution method. The format is functional.

In brackets after ≈: the same amount, converted by molar mass. Activity calls are given as the source filed them. The calls are words filed in the database; no cut-off is given here.

For `CN1CCN(c2nc(Nc3ccc(C#N)c(C(F)(F)F)c3)nc(Oc3ncnc4ccccc34)n2)CC1`, the “inhibition zone (IZ)” value in the assay with Bacillus cereus [1], with Candida albicans [5], with Pseudomonas aeruginosa [6], in the assay with Aspergillus clavatus [9], in the assay on Proteus vulgaris [10] and with Klebsiella pneumoniae [11] was “inactive” in each case. Further, the “inhibition zone (IZ)” value in the assay on Staphylococcus aureus [12], with Salmonella typhi [13], in the assay with Escherichia coli [14], in the assay on Aspergillus niger [15] and with Aspergillus fumigatus [16] was “inactive” throughout. For the same compound, in assay [2], the inhibition result is “inactive”. In addition, the MIC in assay [3] is above 6.25 µg/mL; in assay [4] it was 250 µg/mL (≈ 493 µM); in the assay with Shigella flexneri [8] it was 100 µg/mL (≈ 197 µM). In addition, the “inhibition (percent inhibition)” value in [4] stood at 95%. In addition, the “inhibition zone (IZ)” value in the assay with Shigella flexneri [7] was determined as 22 mm.
In the case of `CCN1CCN(c2nc(Nc3ccc(C#N)c(C(F)(F)F)c3)nc(Oc3ncnc4ccccc34)n2)CC1`, the “inhibition zone (IZ)” value in the assay on Bacillus cereus [1], in the assay with Shigella flexneri [18], in the assay on Pseudomonas aeruginosa [6], in the assay on Aspergillus clavatus [9], with Proteus vulgaris [10] and in the assay on Aspergillus niger [15] was “inactive” throughout. Further, the “inhibition zone (IZ)” value with Aspergillus fumigatus [16] is “inactive”. Moreover, the inhibition result in [2] is “inactive”. In addition, the minimum inhibitory concentration (MIC) in [3] is above 6.25 µg/mL; in assay [4], 500 µg/mL (≈ 959 µM); with Staphylococcus aureus [19], 100 µg/mL (≈ 192 µM); against Klebsiella pneumoniae [20] it was 100 µg/mL (≈ 192 µM); with Escherichia coli [22], 100 µg/mL (≈ 192 µM); against Salmonella typhi [23] it was 100 µg/mL (≈ 192 µM). The compound also registered an MIC against Candida albicans [24] of 100 µg/mL (≈ 192 µM). The “inhibition zone (IZ)” value was determined as 19 mm in the assay with Klebsiella pneumoniae [17]; 23 mm in the assay on Staphylococcus aureus [21]; 23 mm in the assay with Salmonella typhi [25]; 21 mm with Escherichia coli [26]; 21 mm with Candida albicans [27]. For the same compound, the “inhibition (percent inhibition)” value in assay [4] came to 95%.
As for `N#Cc1ccc(Nc2nc(Oc3ncnc4ccccc34)nc(N3CCN(C(c4ccccc4)c4ccccc4)CC3)n2)cc1C(F)(F)F`, the MIC against Aspergillus niger [28] is 100 µg/mL (≈ 152 µM); in assay [3], above 6.25 µg/mL; in assay [4], 62.5 µg/mL (≈ 94.7 µM); against Pseudomonas aeruginosa [30], 50 µg/mL (≈ 75.8 µM); in the assay with Staphylococcus aureus [19], 25 µg/mL (≈ 37.9 µM); against Escherichia coli [22], 100 µg/mL (≈ 152 µM). In addition, the MIC against Salmonella typhi [23], against Candida albicans [24], against Aspergillus clavatus [35], with Proteus vulgaris [36], in the assay with Bacillus cereus [38] and in the assay with Aspergillus fumigatus [39] was 100 µg/mL (≈ 152 µM) throughout. In addition, the inhibition entry in assay [2] is “inactive”. In assay [4], the “inhibition (percent inhibition)” value is on record as 97%. Besides, the “inhibition zone (IZ)” value with Proteus vulgaris [29] was determined as 21 mm; with Bacillus cereus [31], 24 mm; in the assay on Pseudomonas aeruginosa [32] it was 22 mm; in the assay with Staphylococcus aureus [21], 25 mm; in the assay on Salmonella typhi [25], 23 mm; in the assay on Aspergillus niger [33], 21 mm. The “inhibition zone (IZ)” value in the assay with Aspergillus clavatus [34] was found to be 21 mm; in the assay on Escherichia coli [26], 23 mm; in the assay with Aspergillus fumigatus [37] it was 23 mm; in the assay on Candida albicans [27], 21 mm. The “inhibition zone (IZ)” value in the assay with Shigella flexneri [18] and with Klebsiella pneumoniae [11] was “inactive” throughout.
